According to publication doi:10.1101/2022.12.17.520850v1, “A-ring-fused pyrazoles of dihydrotestosterone targeting prostate cancer cells via the downregulation of the androgen receptor” (biorxiv, 2022):

Molecular target: T1, human recombinant AR-LBD (Homo sapiens, UniProt P10275)
T1 sequence (P10275 664-920): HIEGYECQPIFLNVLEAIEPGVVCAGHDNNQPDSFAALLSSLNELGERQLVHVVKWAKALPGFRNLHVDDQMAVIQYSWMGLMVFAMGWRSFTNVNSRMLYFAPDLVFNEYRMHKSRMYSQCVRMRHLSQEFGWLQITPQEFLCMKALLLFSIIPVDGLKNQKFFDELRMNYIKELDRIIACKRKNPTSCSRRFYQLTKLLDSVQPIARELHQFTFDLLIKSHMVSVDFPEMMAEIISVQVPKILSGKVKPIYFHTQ
Assay: microscale thermophoresis
Format: binding
Details: […] 3d, […] His-tagged AR-LBD, […] Tris, […] NaCl, pH […] DTT, […] Tween; labelled protein

Question: Which microscale thermophoresis does the source give for `Cc1c2c(nn1-c1ccc(F)cc1)C[C@@H]1CC[C@@H]3[C@H](CC[C@]4(C)[C@@H](O)CC[C@@H]34)[C@@]1(C)C2` [3d] here?
Answer: confirmed thus binding of 3d into the AR-LBD
